Assay results from patent US20050118262A1, “Controlled release formulation” (priority 2003, published 2005).

Assay: Water solubility of selodenoson
Type: physicochemical

## CCNC(=O)[C@H]1O[C@@H](n2cnc3c(NC4CCCC4)ncnc32)[C@H](O)[C@@H]1O [selodenoson, N^6-cyclopentyl-5′-(N-ethyl)carboxamidoadenosine]
water
  solubility in water: soluble in water
Water under acidic conditions
  solubility in water under acidic conditions: highly soluble in water under acidic conditions
